{"source": "patent US20220040280A1", "about": "“INHIBITORS AND USES THEREOF” (UNIVERSITY OF CANBERRA, priority 2016, published 2022)", "molecules": {"B1": {"name": "IFNγ: interferon gamma used as stimulus (10 μg/mL) (protein, UniProt P01579 24-161, looked up)", "Interferon gamma": "QDPYVKEAENLKKYFNAGHSDVADNGTLFLGILKNWKEESDRKIMQSQIVSFYFKLFKNFKDDQSIQKSVETIKEDMNVKFFNSNKKKRDDFEKLTNYSVTDLNVQRKAIHELIQVMAELSPAAKTGKRKRSQMLFRG"}}, "key": {"PD-L1 [1]": {"system": "PD-L1", "test": "FACS of PD-L1 in CD45-CK+ circulating tumor cells from patient liquid biopsies", "format": "cell-based, human", "settings": "CD45-CK+ CTCs", "experimental": "(§1) Isolated PBMCs and CTCs were stained with CD45−APC, pan-cytokeratin (CK)-FITC, EpCAM-Percp-Cy5.5 and PD-L1-BV421 antibodies. Co-cultured MDA-MB-231 cells were stained with CD44, CD24 and PD-L1. Flow cytometric analysis was performed on single cell suspensions for using the BD LSR II Flow Cytometer."}, "MDA-MB-231 cells": {"system": "MDA-MB-231 cells", "settings": "100 μM, FIG. 21", "procedure": "(§4) 5×10^4 MCF7 or MDA-MB-231 cells were seeded with 1 mL of complete DMEM in 12 well plates overnight. […] Samples were harvested by trypsinisation followed by washing with DPBS containing 2% HI-FBS. FACS staining were performed using anti-human CD44-APC, anti-human CD24-PE, Hoechst, and anti-human EpCAM antibody cocktails. Data was collected from a BD FACSLSR-II flow cytometer. Treestar FlowJo was used for data analysis."}, "[2]": {"target": "T1, LSD1 phosphorylated at serine 111 (LSD1s111p) (Homo sapiens, UniProt O60341)", "T1 construct": "endogenous in cells; host or cells: MCF7 (non-stimulated or PMA-stimulated) and MDA-MB-231 breast cancer cells", "test": "Confocal microscopy of LSD1s111p in MDA-MB-231 cells treated with peptide inhibitors", "format": "cell-based", "settings": "relative to control, FIG. 4", "experimental": "(§2) Cells were probed with either rabbit antibodies to LSD1s111p (Merck ABE1462), EGFR (AB2430), MET (ab51067), PD-L1 (sc-50298), goat antibodies to PD-L1 (sc-19091), SC-14033), (sc-19096), mouse antibodies to Cytokeratin (Miltenyi 130-090-866), CSV (Abnova H00007431-M08), vimentin (SC-6260) followed by visualisation with secondary anti mouse Alexa-Fluor 568 (A10037), secondary anti rabbit Alexa-Fluor 488 (A21206) or secondary anti goat Alexa-Fluor 633 (A21082).\n(§3) MDA-MB-231 or MCF7 cells were treated with one of L1, L2 or L3 and a control. Cells were then fixed with 3.7% formaldehyde and permeabilized with 2% Triton-X-100, then probed with a primary mouse antibody against LSD1 or a primary rabbit antibody against PD-L1, EGFR or MET, followed by visualization with a secondary goat antibody to mouse or rabbit immunoglobulins conjugated to Alexa-Fluor 488. Confocal laser scanning microscopy was used to measure the Fn/c (ratio of nuclear to cytoplasmic fluorescent intensity) ratio of LSD1 with Fiji-imageJ or the total nuclear fluorescence of PD-L1, EGFR or MET. Values are plotted with significant differences indicated using the Mann-Whitney T-test, with at least 20 cells counted per sample. Representative images for each treatment are shown."}, "EGFR": {"system": "EGFR", "test": "Confocal microscopy of EGFR in MDA-MB-231 cells treated with peptide inhibitors", "format": "cell-based, human", "settings": "in comparison to control, FIG. 23", "experimental": "as §3"}, "PD-L1 [3]": {"system": "PD-L1", "test": "Confocal microscopy of PD-L1 in MCF7 cells treated with peptide inhibitors", "format": "cell-based, human", "experimental": "as §2, §3"}, "MET": {"system": "MET", "test": "Confocal microscopy of MET in MDA-MB-231 cells treated with peptide inhibitors", "format": "cell-based, human", "settings": "in comparison to control, FIG. 24", "experimental": "as §3"}, "LSD1": {"target": "T2, LSD1 (Homo sapiens, UniProt O60341)", "T2 construct": "endogenous in cells; host or cells: MCF7 (non-stimulated or PMA-stimulated) and MDA-MB-231 breast cancer cells", "test": "LSD1 nuclear translocation in MDA-MB-231 cells, confocal microscopy", "format": "cell-based", "settings": "FIG. 19 and FIG. 31", "experimental": "as §3\nConfocal laser scanning microscopy was performed on MDA-MB-231 cells treated with a LSD1 peptide inhibitor, L1, L2 or L3, or vehicle alone. Cells were fixed with 3.7% formaldehyde and permeabilized with 2% Triton-X-100, and then probed with a primary mouse antibody to LSD1, followed by the corresponding secondary antibody conjugated to Alexa-Fluor 488. Confocal laser scanning microscopy was used to determine the Fn/c ratio of LSD1 with image-J. Values are plotted with significant differences indicated. Data shown represent the mean±SE for at least 20 individual cells."}, "MCF7 cells": {"system": "MCF7 cells", "settings": "PMA stimulated MCF7 cells, 50 μM and 100 μM tested, FIG. 20", "procedure": "as §4"}, "PD-L1 [4]": {"system": "PD-L1", "test": "Confocal microscopy of PD-L1 in MDA-MB-231 cells treated with peptide inhibitors", "format": "cell-based, human", "experimental": "as §2, §3"}, "[5]": {"target": "T1, LSD1 phosphorylated at serine 111 (LSD1s111p)", "test": "Confocal microscopy of LSD1s111p in MCF7 cells treated with peptide inhibitors", "format": "cell-based", "settings": "stimulated and non-stimulated MCF7 cells, relative to control, FIG. 4", "experimental": "as §2, §3"}, "[6]": {"system": "MDA-MB-231 breast cancer cells", "test": "Flow cytometry of stimulated MDA-MB-231 cells (PD-L1, CD44, CD24)", "format": "cell-based, human", "experimental": "MCF7 and MDA-MB-231 cells were obtained from the American Type Culture Collection (Manassas, Va.). Cells were cultured in DMEM (Invitrogen, Life Technologies, Carlsbad, Calif.) supplemented with 10% FBS, 2 mM L-glutamine, and 1% penicillin-streptomycin-neomycin. MCF7 cells were stimulated with 1.32 ng/ml phorbol 12-myristate 13-acetate (PMA) (Sigma-Aldrich, St Louis, Mo.) or 5 ng/ml recombinant TGF-β1 (R&D Systems, Minneapolis, Minn.) for 60 h. For the co-culture assay MDA-MB-231 cells were stimulated with Jurkat T-cells at defined ratios.\nas §1"}, "[7]": {"system": "MDA-MB-231 breast cancer cells", "test": "Flow cytometry of stimulated MDA-MB-231 cells (PD-L1, CD44, CD24)", "format": "cell-based, human", "settings": "IFNγ 10 μg/mL, PMA 24 ng/mL, 24 or 48 hours"}, "[8]": {"settings": "stimulated MDA-MB-231, 24 hours"}, "[9]": {"settings": "stimulated MDA-MB-231, 48 hours"}}, "note": "“Also recorded” adds a separate entry of the source. Residues, ends and D or L forms follow the SMILES beside them. *: point of attachment. Myristoyl = CCCCCCCCCCCCCC(=O)*", "data": [{"molecule": "CN(C)C(=O)c1cc2cnc(Nc3ccc(N4CCNCC4)cn3)nc2n1C1CCCC1", "note": "[Ribociclib]", "values": [{"measurement": "PD-L1 nuclear (nPD-L1) expression", "setting": "PD-L1 [1]; Patient A, FIG. 18A", "value": "greatest inhibition"}, {"measurement": "PD-L1 nuclear expression", "setting": "PD-L1 [1]; Patient B, FIG. 18B", "value": "inhibited"}, {"measurement": "PD-L1 surface/cytoplasmic expression", "setting": "PD-L1 [1]; Patient B, FIG. 18B", "value": "inhibited"}]}, {"molecule": "CCCCCCCCCCCCCC(=O)N[C@@H](CCCNC(=N)N)C(=O)N[C@@H](CCCNC(=N)N)C(=O)N[C@H](C(=O)N[C@@H](CO)C(=O)N[C@@H](CCCNC(=N)N)C(=O)N[C@@H](CCCNC(=N)N)C(=O)N[C@@H](CCCCN)C(=O)N[C@@H](CCCNC(=N)N)C(=O)N[C@@H](C)C(=O)N[C@@H](CCCCN)C(=O)N[C@H](C(=O)O)C(C)C)[C@@H](C)O", "note": "[Peptide L1, Myristoyl-RRTSRRKRAKV-OH] (Myristoyl-RRTSRRKRAKV-OH)", "values": [{"measurement": "cancer stem cell formation", "setting": "MDA-MB-231 cells", "value": "significant reduction"}, {"measurement": "nuclear expression of LSD1s111p (TNFI)", "setting": "[2]", "value": "significantly abrogated"}, {"measurement": "EGFR nuclear expression (TNFI)", "setting": "EGFR", "value": "significant abrogation"}, {"measurement": "abrogation of nuclear PD-L1 expression", "setting": "PD-L1 [3]; epithelial non-stimulated MCF7 cells, compared with stimulated cells", "value": "lessened"}, {"measurement": "Fn/c ratio (nuclear bias) of PD-L1", "setting": "PD-L1 [3]; peptide treated MCF7 cells", "value": "strongly nuclear"}, {"measurement": "cytoplasmic/surface expression of PD-L1 (TCFI)", "setting": "PD-L1 [3]; stimulated MCF7 cells, FIG. 5", "value": "significantly inhibited"}, {"measurement": "expression of nuclear PD-L1 (TNFI)", "setting": "PD-L1 [3]; stimulated, mesenchymal MCF7 cells, FIG. 5", "value": "significantly abrogated"}, {"measurement": "MET nuclear expression (TNFI)", "setting": "MET", "value": "significant abrogation"}, {"measurement": "nuclear translocation of LSD1 (Fn/c)", "setting": "LSD1", "value": "inhibited; also recorded: clearly abrogated"}, {"measurement": "cancer stem cell formation", "setting": "MCF7 cells", "value": "inhibited"}, {"measurement": "cytoplasmic/surface expression of PD-L1 (TCFI)", "setting": "PD-L1 [4]; MDA-MB-231 cells, FIG. 6", "value": "significantly inhibited"}, {"measurement": "expression of nuclear PD-L1 (TNFI)", "setting": "PD-L1 [4]; MDA-MB-231 cells, FIG. 6", "value": "significantly abrogated"}, {"measurement": "PD-L1 nuclear expression", "setting": "PD-L1 [4]; MDA-MB-231 cells, in comparison to the control, FIG. 22 (50 μM and 100 μM)", "value": "abrogated"}, {"measurement": "Fn/c ratio (nuclear bias) of PD-L1", "setting": "PD-L1 [4]; peptide treated MDA-MB-231 cells", "value": "strongly nuclear"}, {"measurement": "nuclear expression of LSD1s111p (TNFI)", "setting": "[5]", "value": "significantly abrogated"}]}, {"molecule": "B1", "values": [{"measurement": "Median Fluorescence Intensity (MFI) of PD-L1, change on stimulation", "setting": "[6]; MDA-MB-231 cells", "value": "increases"}, {"measurement": "CD44^hi CD24^lo (Frequency of parent, %)", "setting": "[6]; [8]", "value": 77.7, "unit": "%"}, {"measurement": "CD44^hi CD24^lo, PD-L1+ (Frequency of parent, %)", "setting": "[6]; [8]", "value": 99.7, "unit": "%"}, {"measurement": "Mean Fluorescence Intensity of Comp Pacific Blue-A PD-L1, CD44^hi CD24^lo, PD-L1+ subset", "setting": "[6]; [8]", "value": 6173}, {"measurement": "Mean Fluorescence Intensity of Comp Pacific Blue-A PD-L1, PD-L1+ subset", "setting": "[6]; [8]", "value": 6015}, {"measurement": "PD-L1+ (Frequency of parent, %)", "setting": "[6]; [8]", "value": 99.7, "unit": "%"}, {"measurement": "CD44^hi CD24^lo (Frequency of parent, %)", "setting": "[6]; [9]", "value": 98.9, "unit": "%"}, {"measurement": "CD44^hi CD24^lo, PD-L1+ (Frequency of parent, %)", "setting": "[6]; [9]", "value": 99.7, "unit": "%"}, {"measurement": "Mean Fluorescence Intensity of Comp Pacific Blue-A PD-L1, CD44^hi CD24^lo, PD-L1+ subset", "setting": "[6]; [9]", "value": 6173}, {"measurement": "Mean Fluorescence Intensity of Comp Pacific Blue-A PD-L1, PD-L1+ subset", "setting": "[6]; [9]", "value": 6133}, {"measurement": "PD-L1+ (Frequency of parent, %)", "setting": "[6]; [9]", "value": 99.7, "unit": "%"}, {"measurement": "frequency (%) of PD-L1+ cells, change on stimulation", "setting": "[7]", "value": "not altered"}]}]}
